Results: ChEMBL document CHEMBL1150678, “Bioactive sterols from the starfish Certonardoa semiregularis” (2003)
Values after ≈ are worked out from the molar mass of the structure shown.

Columns and labels:
[1] = test system: A549; experiment: Cytotoxicity against human A549 cells; format: functional; conditions: read-out: ED50 (the source's name)
[2] = test system: Klebsiella oxytoca; experiment: Antimicrobial activity against Klebsiella oxytoca 1082E after 18 hrs; format: functional
[3] = test system: Escherichia coli; experiment: Antimicrobial activity against Escherichia coli 1507E isolate after 18 hrs; format: functional
[4] = test system: Streptococcus pyogenes; experiment: Antimicrobial activity against Streptococcus pyogenes 308A isolate after 18 hrs; format: functional
[5] = test system: Pseudomonas aeruginosa; experiment: Antimicrobial activity against Pseudomonas aeruginosa 9027 isolate after 18 hrs; format: functional
[6] = test system: Enterococcus faecium; experiment: Antimicrobial activity against Streptococcus faecium MD8b isolate after 18 hrs; format: functional
[7] = test system: HCT-15; experiment: Cytotoxicity against human HCT15 cells; format: functional; conditions: read-out: ED50 (the source's name)
[8] = test system: Enterobacter cloacae; experiment: Antimicrobial activity against Enterobacter cloacae 1321E after 18 hrs; format: functional
[9] = test system: SK-OV-3; experiment: Cytotoxicity against human SKOV3 cells; format: functional; conditions: read-out: ED50 (the source's name)
[10] = test system: Pseudomonas aeruginosa; experiment: Antimicrobial activity against Pseudomonas aeruginosa 1592E isolate after 18 hrs; format: functional
[11] = test system: Escherichia coli; experiment: Antimicrobial activity against Escherichia coli 078 isolate after 18 hrs; format: functional
[12] = test system: Escherichia coli; experiment: Antimicrobial activity against Escherichia coli DC2 isolate after 18 hrs; format: functional
[13] = test system: Escherichia coli; experiment: Antimicrobial activity against Escherichia coli TEM isolate after 18 hrs; format: functional
[14] = test system: Klebsiella aerogenes; experiment: Antimicrobial activity against Klebsiella aerogenes 1522E after 18 hrs; format: functional
[15] = test system: Enterobacter cloacae; experiment: Antimicrobial activity against Enterobacter cloacae P99 after 18 hrs; format: functional
[16] = test system: XF498; experiment: Cytotoxicity against human XF498 cells; format: functional; conditions: read-out: ED50 (the source's name)
[17] = test system: Escherichia coli; experiment: Antimicrobial activity against Escherichia coli DC0 isolate after 18 hrs; format: functional
[18] = test system: Streptococcus pyogenes; experiment: Antimicrobial activity against Streptococcus pyogenes 77A isolate after 18 hrs; format: functional
[19] = test system: Pseudomonas aeruginosa; experiment: Antimicrobial activity against Pseudomonas aeruginosa 1771 isolate after 18 hrs; format: functional
[20] = test system: Staphylococcus aureus; experiment: Antimicrobial activity against Staphylococcus aureus 503 isolate after 18 hrs; format: functional
[21] = test system: Staphylococcus aureus; experiment: Antimicrobial activity against Staphylococcus aureus SG511 isolate after 18 hrs; format: functional
[22] = test system: Salmonella typhimurium; experiment: Antimicrobial activity against Salmonella Typhimurium after 18 hrs; format: functional, Salmonella enterica subsp. enterica serovar Typhimurium; conditions: Salmonella enterica
[23] = test system: SK-MEL-2; experiment: Cytotoxicity against human SK-MEL-2 cells; format: functional; conditions: read-out: ED50 (the source's name)
[24] = test system: Staphylococcus aureus; experiment: Antimicrobial activity against Staphylococcus aureus 285 isolate after 18 hrs; format: functional
[25] = test system: Pseudomonas aeruginosa; experiment: Antimicrobial activity against Pseudomonas aeruginosa 1771M isolate after 18 hrs; format: functional

Row | MIC [2] | MIC [3] | MIC [4] | MIC [5] | MIC [6] | MIC [8] | MIC [10] | MIC [11] | MIC [12] | MIC [13] | MIC [14] | MIC [15] | MIC [18] | MIC [19] | MIC [25] | Compound | EC50 [1] | EC50 [7] | EC50 [9] | EC50 [16] | EC50 [23] | further results
1 | > 25 µg/mL | > 25 µg/mL | 25 µg/mL (≈ 55.7 µM) | > 25 µg/mL | > 25 µg/mL | > 25 µg/mL | > 25 µg/mL | > 25 µg/mL | > 25 µg/mL | > 25 µg/mL | > 25 µg/mL | > 25 µg/mL | > 25 µg/mL | > 25 µg/mL | > 25 µg/mL | C=C(CC[C@@H](C)[C@H]1C[C@H](O)[C@H]2[C@@H]3C[C@@H](O)[C@H]4C[C@@H](O)CC[C@]4(C)[C@H]3CC[C@@]21C)[C@H](C)CO [CERTONARDOSTEROL E] | 3.9 µg/mL (≈ 8.69 µM) | 4.2 µg/mL (≈ 9.36 µM) | 4.9 µg/mL (≈ 10.9 µM) | 4.1 µg/mL (≈ 9.14 µM) | 4.1 µg/mL (≈ 9.14 µM) | MIC [17]: > 25 µg/mL; MIC [20]: > 25 µg/mL; MIC [21]: > 25 µg/mL; MIC [22]: > 25 µg/mL; MIC [24]: > 25 µg/mL
2 | > 25 µg/mL | > 25 µg/mL | 25 µg/mL (≈ 57.3 µM) | > 25 µg/mL | > 25 µg/mL | > 25 µg/mL | 25 µg/mL (≈ 57.3 µM) | > 25 µg/mL | > 25 µg/mL | > 25 µg/mL | > 25 µg/mL | > 25 µg/mL | 25 µg/mL (≈ 57.3 µM) | 25 µg/mL (≈ 57.3 µM) | > 25 µg/mL | CC(C)[C@@H](O)CC[C@@H](C)[C@H]1C[C@@H](O)[C@H]2[C@@H]3C[C@H](O)[C@H]4C[C@@H](O)CC[C@]4(C)[C@H]3CC[C@@]21C [CERTONARDOSTEROL F] | 3.8 µg/mL (≈ 8.7 µM) | 5.5 µg/mL (≈ 12.6 µM) | 4.4 µg/mL (≈ 10.1 µM) | 4.3 µg/mL (≈ 9.85 µM) | 3.8 µg/mL (≈ 8.7 µM) | MIC [17]: > 25 µg/mL; MIC [20]: > 25 µg/mL; MIC [21]: > 25 µg/mL; MIC [22]: > 25 µg/mL; MIC [24]: > 25 µg/mL
3 | – | – | – | – | – | – | – | – | – | – | – | – | – | – | – | CC(/C=C/[C@@H](C)[C@H]1C[C@@H](O)[C@H]2[C@@H]3C[C@H](O)[C@H]4C(O)[C@@H](O)CC[C@]4(C)[C@H]3CC[C@@]21C)CCO (stereo not given in full) [CERTONARDOSTEROL L] | 4.3 µg/mL (≈ 9.54 µM) | 4.2 µg/mL (≈ 9.32 µM) | 6 µg/mL (≈ 13.3 µM) | 4.5 µg/mL (≈ 9.99 µM) | 4.3 µg/mL (≈ 9.54 µM) | –
4 | – | – | – | – | – | – | – | – | – | – | – | – | – | – | – | C[C@H](CO)[C@H](C)CC[C@@H](C)[C@H]1C[C@@H](O)[C@@H]2[C@]1(C)CC[C@@H]1[C@@]3(C)CC[C@H](O)[C@H](O)[C@@H]3[C@@H](O)C[C@]12O [CERTONARDOSTEROL M] | 30 µg/mL (≈ 62.2 µM) | > 30 µg/mL | > 30 µg/mL | > 30 µg/mL | > 30 µg/mL | –
5 | – | – | – | – | – | – | – | – | – | – | – | – | – | – | – | COc1cccc2c1C(=O)c1c(O)c3c(c(O)c1C2=O)C[C@@](O)(C(=O)CO)C[C@@H]3O[C@H]1C[C@H](N)[C@H](O)[C@H](C)O1 [DOXORUBICIN] | 0.02 µg/mL (≈ 0.0368 µM) | 0.03 µg/mL (≈ 0.0552 µM) | 0.17 µg/mL (≈ 0.313 µM) | 0.06 µg/mL (≈ 0.11 µM) | 0.02 µg/mL (≈ 0.0368 µM) | –

Row | Compound | MIC [2] | MIC [3] | MIC [4] | MIC [5] | MIC [6] | MIC [8] | MIC [10] | MIC [11] | MIC [12] | MIC [13] | MIC [14] | MIC [15] | MIC [18] | MIC [19] | MIC [25] | EC50 [1] | EC50 [7] | EC50 [9] | EC50 [16] | EC50 [23] | further results
6 | C[C@@H](O)[C@H]1C(=O)N2C(C(=O)O)=C(S[C@@H]3CN[C@H](C(=O)N(C)C)C3)[C@H](C)[C@H]12 [MEROPENEM] | – | – | 0.01 µg/mL (≈ 0.0261 µM) | – | – | – | 0.2 µg/mL (≈ 0.522 µM) | – | – | – | – | – | 0.004 µg/mL (≈ 0.0104 µM) | 0.39 µg/mL (≈ 1.02 µM) | 0.1 µg/mL (≈ 0.261 µM) | – | – | – | – | – | –
